# Biological target: DGKα (Homo sapiens, UniProt P23743)
# Test: Human DGKα kinase activity inhibition assay (ADP-Glo)
# Assay type: biochemical
# Conditions: in vitro human DGKα kinase activity inhibition assay
# How it was run: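 C-terminally FLAG-tagged full-length human DGKα from baculovirus/insect cells (typically ~0.1 nM) phosphorylated 1,2-dioleoyl-sn-glycerol in octyl-β-D-glucopyranoside micelles in MOPS pH 7.4. ADP formed was quantified by ADP-Glo luminescence after 1 h ATP depletion at 22 °C.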
# Sequence of DGKα (P23743 with tags, fused parts or gaps): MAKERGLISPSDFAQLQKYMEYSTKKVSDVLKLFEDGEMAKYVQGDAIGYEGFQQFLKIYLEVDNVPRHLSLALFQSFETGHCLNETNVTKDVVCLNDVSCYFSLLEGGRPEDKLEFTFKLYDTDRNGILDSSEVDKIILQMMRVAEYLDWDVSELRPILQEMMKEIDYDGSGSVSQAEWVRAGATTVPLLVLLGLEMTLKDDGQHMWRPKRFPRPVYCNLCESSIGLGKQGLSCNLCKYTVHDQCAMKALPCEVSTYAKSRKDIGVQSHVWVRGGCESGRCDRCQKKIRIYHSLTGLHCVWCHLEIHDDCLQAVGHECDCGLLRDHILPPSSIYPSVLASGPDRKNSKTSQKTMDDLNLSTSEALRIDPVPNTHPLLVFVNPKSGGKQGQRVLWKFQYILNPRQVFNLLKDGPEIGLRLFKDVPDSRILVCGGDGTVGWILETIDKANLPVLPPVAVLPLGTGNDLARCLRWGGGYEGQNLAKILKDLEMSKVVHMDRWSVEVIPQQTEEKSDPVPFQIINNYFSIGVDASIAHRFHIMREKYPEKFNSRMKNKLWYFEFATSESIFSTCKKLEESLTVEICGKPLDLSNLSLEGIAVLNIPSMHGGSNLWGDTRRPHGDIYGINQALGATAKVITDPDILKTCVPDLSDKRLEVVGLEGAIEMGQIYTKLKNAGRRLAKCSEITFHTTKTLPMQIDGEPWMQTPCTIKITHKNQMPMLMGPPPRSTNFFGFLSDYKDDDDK
row,Structure (SMILES),IC50
1,"COc1cc(C)ccc1OC1CCN(c2c(C(N)=O)c(=O)n(C)c3ccc(C)cc23)CC1 [Example 161, 4-[4-(2-methoxy-4-methylphenoxy)piperidin-1-yl]-1,6-dimethyl-2-oxo-1,2-dihydroquinoline-3-carboxamide]",21 nM
2,"Cn1c(=O)c(C#N)c(N2CCC(Oc3ccc(C(F)(F)F)cc3)CC2)c2ccccc21 [Example 13, 1-methyl-2-oxo-4-{4-[4-(trifluoromethyl)phenoxy]piperidin-1-yl}-1,2-dihydroquinoline-3-carbonitrile]",14 nM
3,"Cn1c(=O)c(C#N)c(N2CCC(Oc3ccccc3F)CC2)c2ccccc21 [Example 33, 4-[4-(2-fluorophenoxy)piperidin-1-yl]-1-methyl-2-oxo-1,2-dihydroquinoline-3-carbonitrile]",13 nM
4,"Cn1c(=O)c(C#N)c(N2CCC(Oc3ccc(Cl)cc3)CC2)c2ccc(C3COC3)cc21 [Example 72, 4-[4-(4-chlorophenoxy)piperidin-1-yl]-1-methyl-7-(oxetan-3-yl)-2-oxo-1,2-dihydroquinoline-3-carbonitrile]",16 nM
5,"Cn1c(=O)c(C#N)c(N2CCC(Oc3ccc(F)cc3)CC2)c2cc(C#N)ccc21 [Example 146, 4-[4-(4-fluorophenoxy)piperidin-1-yl]-1-methyl-2-oxo-1,2-dihydroquinoline-3,6-dicarbonitrile]",17 nM
6,"Cn1c(=O)c(C(N)=O)c(N2CCC(Oc3ccc(OC(F)(F)F)cc3)CC2)c2ccccc21 [Example 48, 1-methyl-2-oxo-4-{4-[4-(trifluoromethoxy)phenoxy]piperidin-1-yl}-1,2-dihydroquinoline-3-carboxamide]",0.9 nM
7,"Cn1c(=O)c(C#N)c(N2CCC(Oc3ccc(OC(F)F)cc3)CC2)c2ccccc21 [Example 39, 4-{4-[4-(difluoromethoxy)phenoxy]piperidin-1-yl}-1-methyl-2-oxo-1,2-dihydroquinoline-3-carbonitrile]",4 nM
8,"Cn1c(=O)c(C#N)c(N2CCC(Oc3ccc(F)cc3)CC2)c2ccc(N3CCCC3=O)cc21 [Example 84, 4-[4-(4-fluorophenoxy)piperidin-1-yl]-1-methyl-2-oxo-7-(2-oxopyrrolidin-1-yl)-1,2-dihydroquinoline-3-carbonitrile]",25 nM
9,"Cn1c(=O)c(C#N)c(N2CCC(COc3cccc(Cl)c3)CC2)c2ccccc21 [Example 119, 4-{4-[(3-chlorophenoxy)methyl]piperidin-1-yl}-1-methyl-2-oxo-1,2-dihydroquinoline-3-carbonitrile]",34 nM
10,"CN1CCN(c2ccc3c(N4CCC(Oc5cccc(Cl)c5)CC4)c(C#N)c(=O)n(C)c3c2)CC1 [Example 80, 4-[4-(3-chlorophenoxy)piperidin-1-yl]-1-methyl-7-(4-methylpiperazin-1-yl)-2-oxo-1,2-dihydroquinoline-3-carbonitrile]",534 nM
11,"Cn1c(=O)c(C#N)c(N2CCCC(Oc3ccc(N4CCC4)cc3)CC2)c2ccccc21 (racemic) [Example 104, (rac)-4-{4-[4-(azetidin-1-yl)phenoxy]azepan-1-yl}-1-methyl-2-oxo-1,2-dihydroquinoline-3-carbonitrile]",40 nM
12,"COCCOc1ccc(OC2CCN(c3c(C#N)c(=O)n(C)c4ccccc34)CC2)cc1 [Example 44, 4-{4-[4-(2-methoxyethoxy)phenoxy]piperidin-1-yl}-1-methyl-2-oxo-1,2-dihydroquinoline-3-carbonitrile]",45 nM
13,"COc1cc(C)ccc1OC1CCN(c2c(C#N)c(=O)n(C)c3ccc(C)cc23)CC1 [Example 153, 4-[4-(2-methoxy-4-methylphenoxy)piperidin-1-yl]-1,6-dimethyl-2-oxo-1,2-dihydroquinoline-3-carbonitrile]",10 nM
14,"CN1CCN(c2ccc(OC3CCN(c4c(C#N)c(=O)n(C)c5ccccc45)CC3)cc2)C(=O)C1 [Example 24, 1-methyl-4-{4-[4-(4-methyl-2-oxopiperazin-1-yl)phenoxy]piperidin-1-yl}-2-oxo-1,2-dihydroquinoline-3-carbonitrile]",266 nM
15,"COc1ccccc1COC1CCN(c2c(C#N)c(=O)n(C)c3ccccc23)CC1 [Example 117, 4-{4-[(2-methoxyphenyl)methoxy]piperidin-1-yl}-1-methyl-2-oxo-1,2-dihydroquinoline-3-carbonitrile]",6 nM
16,"Cn1c(=O)c(C#N)c(N2CCC(Oc3cccc(OC(F)(F)F)c3)CC2)c2ccc(C3COC3)cc21 [Example 77, 1-methyl-7-(oxetan-3-yl)-2-oxo-4-{4-[3-(trifluoromethoxy)phenoxy]piperidin-1-yl}-1,2-dihydroquinoline-3-carbonitrile]",17 nM
17,"Cn1c(=O)c(C#N)c(N2CCC(Sc3ccccc3)CC2)c2ccc(C3CC3)cc21 [Example 68, 7-cyclopropyl-1-methyl-2-oxo-4-[4-(phenylsulfanyl)piperidin-1-yl]-1,2-dihydroquinoline-3-carbonitrile]",29 nM
18,"Cn1c(=O)c(C#N)c(N2CCC(Oc3ccc(S(C)(=O)=O)cc3)CC2)c2ccccc21 [Example 43, 4-{4-[4-(methanesulfonyl)phenoxy]piperidin-1-yl}-1-methyl-2-oxo-1,2-dihydroquinoline-3-carbonitrile]",339 nM
19,"Cc1ccc2c(c1)c(N1CCC(Oc3ccccc3C#N)CC1)c(C#N)c(=O)n2C [Example 155, 4-[4-(2-cyanophenoxy)piperidin-1-yl]-1,6-dimethyl-2-oxo-1,2-dihydroquinoline-3-carbonitrile]",9.3 nM
20,"Cc1ccc2c(N3CCC(Oc4ccccc4)CC3)c(C#N)c(=O)n(C)c2c1 [Example 88, 1,7-dimethyl-2-oxo-4-(4-phenoxypiperidin-1-yl)-1,2-dihydroquinoline-3-carbonitrile]",5.8 nM
21,"Cn1c(=O)c(C#N)c(N2CCC(Oc3ccc(Cl)cc3)CC2)c2ccc(N3CCCC3=O)cc21 [Example 85, 4-[4-(4-chlorophenoxy)piperidin-1-yl]-1-methyl-2-oxo-7-(2-oxopyrrolidin-1-yl)-1,2-dihydroquinoline-3-carbonitrile]",28 nM
22,"Cc1ccccc1COC1CCN(c2c(C(N)=O)c(=O)n(C)c3ccccc23)CC1 [Example 124, 1-methyl-4-{4-[(2-methylphenyl)methoxy]piperidin-1-yl}-2-oxo-1,2-dihydroquinoline-3-carboxamide]",30 nM
23,"Cn1c(=O)c(C#N)c(N2CCC(Sc3ccccc3)CC2)c2ccccc21 [Example 53, 1-methyl-2-oxo-4-[4-(phenylsulfanyl)piperidin-1-yl]-1,2-dihydroquinoline-3-carbonitrile]",1.1 nM

# Now from value to compound:
row,IC50,Structure (SMILES)
1,19 nM,"Cn1c(=O)c(C#N)c(N2CCC(Oc3ccc(OC(F)(F)F)cc3)CC2)c2ccc(Br)cc21 [Example 58, 7-bromo-1-methyl-2-oxo-4-{4-[4-(trifluoromethoxy)phenoxy]piperidin-1-yl}-1,2-dihydroquinoline-3-carbonitrile]"
2,18 nM,"Cn1c(=O)c(C#N)c(N2CCCC(Oc3ccc(OC(F)(F)F)cc3)CC2)c2ccccc21 (single isomer, unassigned; enantiomer 2) [Example 102, 1-methyl-2-oxo-4-{4-[4-(trifluoromethoxy)phenoxy]azepan-1-yl}-1,2-dihydroquinoline-3-carbonitrile, enantiomer 2]"
3,3.9 nM,"Cn1c(=O)c(C#N)c(N2CCC(Oc3ccc(OC(F)(F)F)cc3)CC2)c2ccccc21 [Example 2, 1-methyl-2-oxo-4-{4-[4-(trifluoromethoxy)phenoxy]piperidin-1-yl}-1,2-dihydroquinoline-3-carbonitrile]"
4,18 nM,"Cn1c(=O)c(C#N)c(N2CCC(Oc3ccc(C(F)(F)F)cc3)CC2)c2ccc(Br)cc21 [Example 59, 7-bromo-1-methyl-2-oxo-4-{4-[4-(trifluoromethyl)phenoxy]piperidin-1-yl}-1,2-dihydroquinoline-3-carbonitrile]"
5,1.9 nM,"Cn1c(=O)c(C#N)c(N2CCC(Oc3ccc(F)cc3)CC2)c2cc(Br)ccc21 [Example 137, 6-bromo-4-[4-(4-fluorophenoxy)piperidin-1-yl]-1-methyl-2-oxo-1,2-dihydroquinoline-3-carbonitrile]"
6,4.4 nM,"Cn1c(=O)c(C#N)c(N2CCC(Oc3ccc(OC(F)(F)F)cc3)CC2)c2cc(C#N)ccc21 [Example 145, 1-methyl-2-oxo-4-{4-[4-(trifluoromethoxy)phenoxy]piperidin-1-yl}-1,2-dihydroquinoline-3,6-dicarbonitrile]"
7,2.5 nM,"Cn1c(=O)c(C#N)c(N2CCC(Oc3ccc(OC(F)(F)F)cc3)CC2)c2cc(Br)ccc21 [Example 139, 6-bromo-1-methyl-2-oxo-4-{4-[4-(trifluoromethoxy)phenoxy]piperidin-1-yl}-1,2-dihydroquinoline-3-carbonitrile]"
8,14 nM,"COc1ccc2c(N3CCC(Oc4ccc(C(F)(F)F)cc4)CC3)c(C#N)c(=O)n(C)c2c1 [Example 66, 7-methoxy-1-methyl-2-oxo-4-{4-[4-(trifluoromethyl)phenoxy]piperidin-1-yl}-1,2-dihydroquinoline-3-carbonitrile]"
9,16 nM,"Cn1c(=O)c(C#N)c(N2CCC(Oc3ccc(OC(F)(F)F)cc3)CC2)c2ccc(Cl)cc21 [Example 64, 7-chloro-1-methyl-2-oxo-4-{4-[4-(trifluoromethoxy)phenoxy]piperidin-1-yl}-1,2-dihydroquinoline-3-carbonitrile]"
10,8.3 nM,"Cn1c(=O)c(C#N)c(N2CCCC(Oc3ccc(OC(F)(F)F)cc3)CC2)c2ccccc21 (racemic) [Example 100, (rac)-1-methyl-2-oxo-4-{4-[4-(trifluoromethoxy)phenoxy]azepan-1-yl}-1,2-dihydroquinoline-3-carbonitrile]"
11,0.17 nM,"Cn1c(=O)c(C(N)=O)c(N2CCC(Oc3ccc(OC(F)(F)F)cc3)CC2)c2cc(F)ccc21 [Example 165, 6-fluoro-1-methyl-2-oxo-4-{4-[4-(trifluoromethoxy)phenoxy]piperidin-1-yl}-1,2-dihydroquinoline-3-carboxamide]"
12,0.97 nM,"Cn1c(=O)c(C#N)c(N2CCC(Oc3ccc(OC(F)(F)F)cc3)CC2)c2cc(F)ccc21 [Example 166, 6-fluoro-1-methyl-2-oxo-4-{4-[4-(trifluoromethoxy)phenoxy]piperidin-1-yl}-1,2-dihydroquinoline-3-carbonitrile]"

# Source: patent publication US20230062100A1, “SUBSTITUTED AMINOQUINOLONES AS DGKALPHA INHIBITORS FOR IMMUNE ACTIVATION” (Bayer Aktiengesellschaft, priority 2019, published 2023)
